Measured values from ChEMBL document CHEMBL5352463, “Synthesis of novel glutarimide ligands for the E3 ligase substrate receptor Cereblon (CRBN): Investigation of their binding mode and antiproliferative effects against myeloma cell lines” (Eur J Med Chem, 2023).
Calls of active or inactive are those of the source. No cut-off for these calls is given here.

What was measured:
[1] = tested on: KMS-12-PE; experiment: Antiproliferative activity against human KMS-12-PE cells assessed as inhibition of cell proliferation incubated for 48 hrs by CellTiter Glo luminescence based […]; assay type: functional
[2] = tested on: MOLP-8; experiment: cells; details: Homo sapiens, MOLP-8, 48 h
Description: Antiproliferative activity against human MOLP8 cells assessed as inhibition of cell proliferation incubated for 48 hrs by CellTiter Glo luminescence based MTT assay

[3] = Cytotoxicity against PBMC (unknown origin) cells assessed as inhibition of cell growth incubated for 48 hrs by CellTiter Glo luminescence based […]; assay type: toxicity
[4] = target: Protein cereblon (Homo sapiens) (UniProt Q96SW2); experiment: Binding affinity to human CRBN thalidomide binding domain by microscale thermophoresis analysis
Protein cereblon (Homo sapiens), sequence (Q96SW2 whole entry, the tested form may be a part): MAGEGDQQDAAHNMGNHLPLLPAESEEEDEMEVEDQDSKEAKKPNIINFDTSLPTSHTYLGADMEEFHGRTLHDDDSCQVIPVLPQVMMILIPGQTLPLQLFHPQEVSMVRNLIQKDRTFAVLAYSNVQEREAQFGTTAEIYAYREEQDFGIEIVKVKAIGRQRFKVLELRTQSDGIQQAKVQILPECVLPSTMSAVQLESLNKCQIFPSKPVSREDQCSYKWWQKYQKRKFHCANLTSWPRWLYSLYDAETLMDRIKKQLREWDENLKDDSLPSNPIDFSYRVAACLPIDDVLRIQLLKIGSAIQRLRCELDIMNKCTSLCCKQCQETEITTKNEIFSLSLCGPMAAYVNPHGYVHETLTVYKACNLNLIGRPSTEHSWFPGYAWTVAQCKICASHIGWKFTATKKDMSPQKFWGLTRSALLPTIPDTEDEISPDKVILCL

Structure (SMILES)	IC50 [2] [µM]	Activity [4]	IC50 [1] [µM]	IC50 at 48 h [3] [µM]
COc1ccc(CSCC2CCC(=O)NC2=O)cc1 (stereo unspecified)	73.2		> 100	
COC(=O)c1ccccc1SCC1CCC(=O)NC1=O (stereo unspecified)	19.8		32.6	
O=C1CCC(CSc2cccc([N+](=O)[O-])c2)C(=O)N1 (stereo unspecified)	15.9		13.6	
O=C1CCC(N2C(=O)c3ccccc3C2=O)C(=O)N1 (stereo unspecified) [THALIDOMIDE]	> 75		> 75	
CC(=O)Nc1cccc(SCC2CCC(=O)NC2=O)c1 (stereo unspecified)	49.5			
O=C1CCC(CSc2ccccc2C(=O)O)C(=O)N1 (stereo unspecified)	> 100	inactive	> 100	
O=C1CCC(SCc2ccccc2)C(=O)N1 (stereo unspecified)	> 100			
CC(=O)Nc1ccccc1SCC1CCC(=O)NC1=O (stereo unspecified)	27.4			
O=C1CCC(CSc2ccccc2[N+](=O)[O-])C(=O)N1 (stereo unspecified)	12.8		13.3	
O=C1CCC(CSc2ccccc2)C(=O)N1 (stereo unspecified)	40		36.4	
O=C1CCC(CSc2ccccn2)C(=O)N1 (stereo unspecified)	27.4		13.3	
Nc1cccc(SCC2CCC(=O)NC2=O)c1 (stereo unspecified)	41.2		> 90	> 200
Cn1cnnc1SCC1CCC(=O)NC1=O (stereo unspecified)	> 100		> 100	
Cc1cc(C)c(SCC2CCC(=O)NC2=O)c(C)c1 (stereo unspecified)	21		23.1	
O=C1CCC(CSc2ncccn2)C(=O)N1 (stereo unspecified)	23.9		36.7	
Nc1ccccc1SCC1CCC(=O)NC1=O (stereo unspecified)	32.3		38.5	71.8
Cc1ccnc(SCC2CCC(=O)NC2=O)n1 (stereo unspecified)	11.9		36.8	
CN1C(=O)CCC(CSc2ccccc2)C1=O (stereo unspecified)	85.9	inactive	> 100	
O=C1CCC(CSCc2ccccc2)C(=O)N1 (stereo unspecified)	> 100			
CN1C(=O)CCC(CSc2ccc(Cl)cc2)C1=O (stereo unspecified)	80.8	inactive	45.5	

Further lines, with some results ahead:

IC50 [2] [µM]	Activity [4]	Structure (SMILES)	IC50 [1] [µM]	IC50 at 48 h [3] [µM]
5.3		Cc1ccc(S(=O)(=O)CC2CCC(=O)NC2=O)cc1 (stereo unspecified)	6.12	
6.81		O=C1CCC(CS(=O)(=O)c2ccc(Cl)cc2)C(=O)N1 (stereo unspecified)	5.9	
5.72		O=C1CCC(CS(=O)(=O)c2ccccc2)C(=O)N1 (stereo unspecified)	6	
38.3		CC(=O)Nc1ccc(SCC2CCC(=O)NC2=O)cc1 (stereo unspecified)		
5.8		O=C1CCC(CS(=O)(=O)c2ccc(F)cc2)C(=O)N1 (stereo unspecified)	6.45	
44.3		Nc1ccc(SCC2CCC(=O)NC2=O)cc1 (stereo unspecified)	> 90	> 200
8.43		O=C1CCC(CSc2ccc([N+](=O)[O-])cc2)C(=O)N1 (stereo unspecified)		
18.3		O=C1CCC(CSc2ccc(Br)cc2)C(=O)N1 (stereo unspecified)	12.9	
6.27		COc1ccc(CS(=O)(=O)CC2CCC(=O)NC2=O)cc1 (stereo unspecified)	5.88	
20.5		O=C1CCC(CSc2ccc(Cl)cc2)C(=O)N1 (stereo unspecified)	16.2	
5.52		O=C1CCC(CS(=O)(=O)Cc2ccccc2)C(=O)N1 (stereo unspecified)	5.17	
32		O=C1CCC(CSc2ccc(F)cc2)C(=O)N1 (stereo unspecified)	29.8	
38.1		Cc1ccc(SCC2CCC(=O)NC2=O)cc1 (stereo unspecified)	40	
